Test results from patent US7109193B2, “Tricyclic diazepines tocolytic oxytocin receptor antagonists” (Wyeth, priority 2001, dated 2006).

target: T1, human vasopressin V2 receptor subtype (Homo sapiens, UniProt P30518); assay: Vasopressin binding in Chinese Hamster Ovary cell membranes expressing human vasopressin V2 subtype receptors; conditions: 100 nM, CHO cell membranes, [3H]arginine vasopressin, values without parentheses
T1 construct: host or cells: CHO cells (pZeoSV vector)
Summary of the method: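 Radioligand displacement on membranes from CHO cells stably expressing human V2 receptor, 25 to 50 μg protein/well, in 50 mM Tris-HCl pH 7.4 with MgCl2, BSA and protease inhibitors. [^3H]arginine vasopressin (8 nM working solution) incubated 60 min at room temperature; bound label measured by filtration and scintillation counting.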

T1 sequence (P30518 whole entry): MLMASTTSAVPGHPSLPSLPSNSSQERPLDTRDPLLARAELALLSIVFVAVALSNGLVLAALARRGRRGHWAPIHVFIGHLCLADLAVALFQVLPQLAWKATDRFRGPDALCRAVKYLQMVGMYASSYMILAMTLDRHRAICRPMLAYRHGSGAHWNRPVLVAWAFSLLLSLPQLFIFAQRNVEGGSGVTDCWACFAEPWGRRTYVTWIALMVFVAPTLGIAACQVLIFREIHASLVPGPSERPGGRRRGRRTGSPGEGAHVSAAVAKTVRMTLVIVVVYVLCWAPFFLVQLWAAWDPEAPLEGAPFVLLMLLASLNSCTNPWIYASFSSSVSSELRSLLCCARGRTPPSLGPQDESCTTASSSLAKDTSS

**Q.** With COc1cc(C(=O)N2Cc3ccc(C(=O)NCCC4CCCN4C)n3Cc3ccccc32)ccc1-c1cccc2ccccc12 (stereo not shown) [Example 170, 10-[3-Methoxy-4-(1-naphthyl)benzoyl]-N-[2-(1-methyl-2-pyrrolidinyl)ethyl]-10,11-dihydro-5H-pyrrolo[2,1-c][1,4]benzodiazepine-3-carboxamide] as the compound, how does the inhibition at 0.1 µM read?
**A.** 27%

**Q.** How did the inhibition at 0.1 µM turn out when COc1cccc(-c2ccc(C(=O)N3Cc4ccc(C(=O)N5CCN(C(C)C)CC5)n4Cc4ccccc43)cc2OC)c1 [Example 242, {10-[(2,3′-Dimethoxy[1,1′-biphenyl]-4-yl)carbonyl]-10,11-dihydro-5H-pyrrolo[2,1-c][1,4]benzodiazepin-3-yl}(4-isopropyl-1-piperazinyl)methanone] was run?
**A.** 25%

**Q.** With Cc1ccccc1-c1ccc(C(=O)N2Cc3ccc(C(=O)NCCC4CCCN4C)n3Cc3ccccc32)cc1C (stereo not shown) [Example 163, 10-[(2,2′-Dimethyl[1,1′-biphenyl]-4-yl)carbonyl]-N-[2-(1-methyl-2-pyrrolidinyl)ethyl]-10,11-dihydro-5H-pyrrolo[2,1-c][1,4]benzodiazepine-3-carboxamide] as the compound, how does the inhibition at 0.1 µM read?
**A.** 13%

**Q.** Which inhibition at 0.1 µM does the source give for COc1ccccc1-c1ccc(C(=O)N2Cc3ccc(C(=O)N(C)C4CCN(C)C4)n3Cc3ccccc32)cc1OC (stereo not shown) [Example 193, 10-[(2,2′-Dimethoxy[1,1′-biphenyl]-4-yl)carbonyl]-N-methyl-N-(1-methyl-3-pyrrolidinyl)-10,11-dihydro-5H-pyrrolo[2,1-c][1,4]benzodiazepine-3-carboxamide] here?
**A.** 16%

**Q.** Which inhibition at 0.1 µM does the source give for COc1cc(-c2ccccc2C)c(Cl)cc1C(=O)N1Cc2ccc(C(=O)N3CCN(CCN4CCOCC4)CC3)n2Cc2ccccc21 [Example 217, {10-[(6-Chloro-3-methoxy-2′-methyl[1,1′-biphenyl]-4-yl)carbonyl]-10,11-dihydro-5H -pyrrolo[2,1-c][1,4]benzodiazepin-3-yl}{4-[2-(4-morpholinyl)ethyl]-1-piperazinyl}methanone] here?
**A.** 34%

**Q.** For COc1ccccc1-c1ccc(C(=O)N2Cc3ccc(C(=O)N(C)C4CCN(C)C4)n3Cc3ccccc32)cc1C (stereo not shown) [Example 185, 10-[(2′-Methoxy-2-methyl[1,1′-biphenyl]-4-yl)carbonyl]-N-methyl-N-(1-methyl-3-pyrrolidinyl)-10,11-dihydro-5H-pyrrolo[2,1-c][1,4]benzodiazepine-3-carboxamide], which inhibition at 0.1 µM is on record?
**A.** 27%

**Q.** COc1ccccc1-c1ccc(C(=O)N2Cc3ccc(C(=O)NCCC4CCCN4C)n3Cc3ccccc32)cc1C (stereo not shown) [Example 162, 10-[(2′-Methoxy-2-methyl[1,1′-biphenyl]-4-yl)carbonyl]-N-[2-(1-methyl-2-pyrrolidinyl)ethyl]-10,11-dihydro-5H-pyrrolo[2,1-c][1,4]benzodiazepine-3-carboxamide] was tested. Which inhibition at 0.1 µM did it give?
**A.** 20%

**Q.** With Cc1ccccc1-c1ccc(C(=O)N2Cc3ccc(C(=O)N4CCN(CCN(C)C)CC4)n3Cc3ccccc32)cc1C [Example 198, {4-[2-(Dimethylamino)ethyl]-1-piperazinyl}{10-[(2,2′-dimethyl[1,1′-biphenyl]-4-yl)carbonyl]-10,11-dihydro-5H-pyrrolo[2,1-c][1,4]benzodiazepin-3-yl}methanone] as the compound, how does the inhibition at 0.1 µM read?
**A.** 19%

**Q.** For COc1ccccc1-c1ccc(C(=O)N2Cc3ccc(C(=O)N(C)C4CCN(C)CC4)n3Cc3ccccc32)cc1OC [Example 183, 10-[(2,2′-Dimethoxy[1,1′-biphenyl]-4-yl)carbonyl]-N-methyl-N-(1-methyl-4-piperidinyl)-10,11-dihydro-5H-pyrrolo[2,1-c][1,4]benzodiazepine-3-carboxamide], which inhibition at 0.1 µM is on record?
**A.** 18%

**Q.** How did the inhibition at 0.1 µM turn out when COc1cccc(-c2cc(OC)c(C(=O)N3Cc4ccc(C(=O)NCCC5CCCN5C)n4Cc4ccccc43)cc2Cl)c1 (stereo not shown) [Example 169, 10-[(6-Chloro-3,3′-dimethoxy[1,1′-biphenyl]-4-yl)carbonyl]-N-[2-(1-methyl-2-pyrrolidinyl)ethyl]-10,11-dihydro-5H-pyrrolo[2,1-c][1,4]benzodiazepine-3-carboxamide] was run?
**A.** 5%

**Q.** For COc1cc(C(=O)N2Cc3ccc(C(=O)N4CCN(C(C)C)CC4)n3Cc3ccccc32)ccc1-c1cccc2ccccc12 [Example 236, (4-Isopropyl-1-piperazinyl){10-[3-methoxy-4-(1-naphthyl)benzoyl]-10,11-dihydro-5H -pyrrolo[2,1-c][1,4]benzodiazepin-3-yl}methanone], which inhibition at 0.1 µM is on record?
**A.** 5%

**Q.** How did the inhibition at 0.1 µM turn out when Cc1ccccc1-c1ccc(C(=O)N2Cc3ccc(C(=O)N4CCN(C(C)C)CC4)n3Cc3ccccc32)cc1C [Example 233, {10-[(2,2′-Dimethyl[1,1′-biphenyl]-4-yl)carbonyl]-10,11-dihydro-5H-pyrrolo[2,1-c][1,4]benzodiazepin-3-yl}(4-isopropyl-1-piperazinyl)methanone] was run?
**A.** 23%

**Q.** With COc1cc(C(=O)N2Cc3ccc(C(=O)NCCN4CCCCC4)n3Cc3ccccc32)ccc1-c1cccc2ccccc12 [Example 157, 10-[3-Methoxy-4-(1-naphthyl)benzoyl]-N-[2-(1-piperidinyl)ethyl]-10,11-dihydro-5H-pyrrolo[2,1-c][1,4]benzodiazepine-3-carboxamide] as the compound, how does the inhibition at 0.1 µM read?
**A.** 23%

**Q.** How did the inhibition at 0.1 µM turn out when Cc1cc(C(=O)N2Cc3ccc(C(=O)NCCC4CCCN4C)n3Cc3ccccc32)ccc1-c1ccccc1C(F)(F)F (stereo not shown) [Example 174, N-[2-(1-Methyl-2-pyrrolidinyl)ethyl]-10-{[2-methyl-2′-(trifluoromethyl)[1,1′-biphenyl]-4-yl]carbonyl}-10,11-dihydro-5H-pyrrolo[2,1-c][1,4]benzodiazepine-3-carboxamide] was run?
**A.** 7%

**Q.** How did the inhibition at 0.1 µM turn out when Cc1ccccc1-c1ccc(C(=O)N2Cc3ccc(C(=O)N4CCN(CCN(C)C)CC4)n3Cc3ccccc32)cc1 [Example 200, {4-[2-(Dimethylamino)ethyl]-1-piperazinyl}{10-[(2′-methyl[1,1′-biphenyl]-4-yl)carbonyl]-10,11-dihydro-5H-pyrrolo[2,1-c][1,4]benzodiazepin-3-yl}methanone] was run?
**A.** 10%

**Q.** Which inhibition at 0.1 µM does the source give for COc1cc2c(cc1OC)N(C(=O)c1ccc(-c3ccccc3C(F)(F)F)c(C)c1)Cc1cccn1C2 [Example 12, 7,8-Dimethoxy-[10,11-dihydro-5H-pyrrolo[2,1-c][1,4]benzodiazepin-10-yl][2-methyl-2′-(trifluoromethyl)[1,1′-biphenyl]-4-yl]methanone] here?
**A.** -1%

**Q.** For Cc1cc(C(=O)N2Cc3ccc(C(=O)N4CCN(C(=O)OC(C)(C)C)CC4)n3Cc3ccccc32)ccc1-c1ccccc1C(F)(F)F [Example 6, 4-[[10,11-Dihydro-10-[[2-methyl-2′-trifluoromethyl[1,1′-biphenyl]-4-yl]carbonyl]-5H-pyrrolo[2,1-c][1,4]benzodiazepin-3-yl]carbonyl]-1-piperazine-carboxylic acid, tert-butyl ester], which inhibition at 0.1 µM is on record?
**A.** 13%

**Q.** For COc1ccccc1-c1ccc(C(=O)N2Cc3ccc(C(=O)N4CCN(C(C)C)CC4)n3Cc3ccccc32)cc1OC [Example 241, {10-[(2,2′-Dimethoxy[1,1-biphenyl]4-yl)carbonyl]-10,11-dihydro-5H-pyrrolo[2,1-c][1,4]benzodiazepin-3-yl}(4-isopropyl-1-piperazinyl)methanone], which inhibition at 0.1 µM is on record?
**A.** -17%

**Q.** COc1cc(C(=O)N2Cc3ccc(C(=O)N(C)C4CCN(C)C4)n3Cc3ccccc32)ccc1-c1cccc2ccccc12 (stereo not shown) [Example 192, 10-[3-Methoxy-4-(1-naphthyl)benzoyl]-N-methyl-N-(1-methyl-3-pyrrolidinyl)-10,11-dihydro-5H-pyrrolo[2,1-c][1,4]benzodiazepine-3-carboxamide] was tested. Which inhibition at 0.1 µM did it give?
**A.** 28%
